Results from the kinase profiling compilation of Christmann-Franck et al. (2016).

Columns and labels:
Test in all cases: KINOMEscan competition binding
Conditions in all cases: compound 10.0 µM
[1] = system: ABL1 (human), P00519 [E255K]
BMPR1A (human) = BMPR1A (human) (UniProt P36894)
BMPR2 (human) = BMPR2 (human) (UniProt Q13873)
CAMKK1 (human) = CAMKK1 (human) (UniProt Q8N5S9)
CDK18 (human) = CDK18 (human) (UniProt Q07002)
DYRK1A (human) = DYRK1A (human) (UniProt Q13627)
[2] = system: EIF2AK4 KD2 (human), Q9P2K8 [S808G]
EPHA8 (human) = EPHA8 (human) (UniProt P29322)
EPHB1 (human) = EPHB1 (human) (UniProt P54762)
EPHB3 (human) = EPHB3 (human) (UniProt P54753)
FRK (human) = FRK (human) (UniProt P42685)
GRK1 (human) = GRK1 (human) (UniProt Q15835)
INSR (human) = INSR (human) (UniProt P06213)
[3] = molecular target: JAK3 JH1 catalytic (human) (UniProt P52333)
LATS1 (human) = LATS1 (human) (UniProt O95835)
MAP2K2 (human) = MAP2K2 (human) (UniProt P36507)
MAP3K13 (human) = MAP3K13 (human) (UniProt O43283)
MAP3K7 (human) = MAP3K7 (human) (UniProt O43318)
MAP4K3 (human) = MAP4K3 (human) (UniProt Q8IVH8)
MAPK3 (human) = MAPK3 (human) (UniProt P27361)
MAPK8 (human) = MAPK8 (human) (UniProt P45983)
MAPK9 (human) = MAPK9 (human) (UniProt P45984)
MET (human) = MET (human) (UniProt P08581)
MYLK3 (human) = MYLK3 (human) (UniProt Q32MK0)
NEK1 (human) = NEK1 (human) (UniProt Q96PY6)
PAK7 (human) = PAK7 (human) (UniProt Q9P286)
PIK3CA (human) = PIK3CA (human) (UniProt P42336)
PIM2 (human) = PIM2 (human) (UniProt Q9P1W9)
PIP5K1A (human) = PIP5K1A (human) (UniProt Q99755)
PRKCD (human) = PRKCD (human) (UniProt Q05655)
PRKCH (human) = PRKCH (human) (UniProt P24723)
[4] = system: RET (human), P07949 [V804M]
RIPK2 (human) = RIPK2 (human) (UniProt O43353)
RPS6KA1 KD1 (human) = RPS6KA1 KD1 (human) (UniProt Q15418)
RPS6KA1 KD2 (human) = RPS6KA1 KD2 (human) (UniProt Q15418)
RPS6KA6 KD1 (human) = RPS6KA6 KD1 (human) (UniProt Q9UK32)
SRMS (human) = SRMS (human) (UniProt Q9H3Y6)
STK3 (human) = STK3 (human) (UniProt Q13188)
TLK1 (human) = TLK1 (human) (UniProt Q9UKI8)
TNK2 (human) = TNK2 (human) (UniProt Q07912)
[5] = molecular target: TYK2 JH2 pseudokinase (human) (UniProt P29597)

Sequence of MAPK3 (human) (P27361 whole entry, looked up): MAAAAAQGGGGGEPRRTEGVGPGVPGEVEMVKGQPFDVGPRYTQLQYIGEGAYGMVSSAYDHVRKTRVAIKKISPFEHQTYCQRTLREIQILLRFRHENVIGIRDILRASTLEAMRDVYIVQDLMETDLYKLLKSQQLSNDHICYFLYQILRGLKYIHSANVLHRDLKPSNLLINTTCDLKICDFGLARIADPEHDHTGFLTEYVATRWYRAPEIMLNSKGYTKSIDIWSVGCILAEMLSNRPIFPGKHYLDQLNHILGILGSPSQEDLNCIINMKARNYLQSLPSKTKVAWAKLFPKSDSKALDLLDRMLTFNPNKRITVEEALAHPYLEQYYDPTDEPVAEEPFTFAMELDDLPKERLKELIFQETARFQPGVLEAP
Sequence of NEK1 (human) (Q96PY6 whole entry, looked up): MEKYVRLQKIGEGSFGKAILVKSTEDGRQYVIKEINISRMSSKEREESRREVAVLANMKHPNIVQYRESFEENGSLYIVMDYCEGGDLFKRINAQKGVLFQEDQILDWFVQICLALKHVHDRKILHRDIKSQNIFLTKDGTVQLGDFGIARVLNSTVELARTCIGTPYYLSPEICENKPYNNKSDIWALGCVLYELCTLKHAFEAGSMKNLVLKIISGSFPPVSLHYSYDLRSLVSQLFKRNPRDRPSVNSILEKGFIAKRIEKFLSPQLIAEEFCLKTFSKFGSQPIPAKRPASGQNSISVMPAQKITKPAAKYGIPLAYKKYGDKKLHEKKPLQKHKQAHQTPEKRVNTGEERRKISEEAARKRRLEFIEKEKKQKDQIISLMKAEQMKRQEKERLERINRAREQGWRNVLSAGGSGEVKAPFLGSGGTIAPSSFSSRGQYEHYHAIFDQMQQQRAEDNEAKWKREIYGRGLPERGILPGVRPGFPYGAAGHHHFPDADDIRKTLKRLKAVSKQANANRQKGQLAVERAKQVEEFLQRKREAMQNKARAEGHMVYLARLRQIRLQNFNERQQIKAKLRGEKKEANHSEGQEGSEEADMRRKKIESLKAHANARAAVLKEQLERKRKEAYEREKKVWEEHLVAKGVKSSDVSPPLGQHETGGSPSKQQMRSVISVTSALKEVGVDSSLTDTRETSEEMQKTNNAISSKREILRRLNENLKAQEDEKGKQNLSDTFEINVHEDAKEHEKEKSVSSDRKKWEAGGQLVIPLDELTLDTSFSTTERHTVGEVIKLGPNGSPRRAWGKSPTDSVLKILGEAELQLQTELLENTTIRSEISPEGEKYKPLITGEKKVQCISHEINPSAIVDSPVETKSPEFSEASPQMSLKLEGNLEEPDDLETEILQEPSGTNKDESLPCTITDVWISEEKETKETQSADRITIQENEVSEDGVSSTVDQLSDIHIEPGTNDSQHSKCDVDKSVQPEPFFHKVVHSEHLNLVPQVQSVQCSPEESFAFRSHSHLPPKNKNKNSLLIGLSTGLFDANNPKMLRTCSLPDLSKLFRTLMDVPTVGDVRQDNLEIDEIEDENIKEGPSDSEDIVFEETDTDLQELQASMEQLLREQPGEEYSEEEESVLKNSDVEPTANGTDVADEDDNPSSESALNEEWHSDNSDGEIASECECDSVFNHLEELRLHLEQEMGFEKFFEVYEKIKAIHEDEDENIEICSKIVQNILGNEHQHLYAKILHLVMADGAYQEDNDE
Sequence of SRMS (human) (Q9H3Y6 whole entry, looked up): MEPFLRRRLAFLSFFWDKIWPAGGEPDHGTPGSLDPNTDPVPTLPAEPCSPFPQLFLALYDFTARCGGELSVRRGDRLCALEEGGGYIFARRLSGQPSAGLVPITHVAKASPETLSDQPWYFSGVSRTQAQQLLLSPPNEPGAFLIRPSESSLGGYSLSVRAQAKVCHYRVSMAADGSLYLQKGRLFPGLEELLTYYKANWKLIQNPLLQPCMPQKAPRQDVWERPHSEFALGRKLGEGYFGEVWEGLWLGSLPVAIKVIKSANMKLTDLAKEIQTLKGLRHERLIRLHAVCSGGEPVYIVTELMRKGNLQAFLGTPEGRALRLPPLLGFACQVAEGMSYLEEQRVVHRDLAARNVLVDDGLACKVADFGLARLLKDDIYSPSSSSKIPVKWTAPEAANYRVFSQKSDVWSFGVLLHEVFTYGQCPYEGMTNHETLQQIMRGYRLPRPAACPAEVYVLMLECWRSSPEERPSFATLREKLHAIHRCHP
Sequence of FRK (human) (P42685 whole entry, looked up): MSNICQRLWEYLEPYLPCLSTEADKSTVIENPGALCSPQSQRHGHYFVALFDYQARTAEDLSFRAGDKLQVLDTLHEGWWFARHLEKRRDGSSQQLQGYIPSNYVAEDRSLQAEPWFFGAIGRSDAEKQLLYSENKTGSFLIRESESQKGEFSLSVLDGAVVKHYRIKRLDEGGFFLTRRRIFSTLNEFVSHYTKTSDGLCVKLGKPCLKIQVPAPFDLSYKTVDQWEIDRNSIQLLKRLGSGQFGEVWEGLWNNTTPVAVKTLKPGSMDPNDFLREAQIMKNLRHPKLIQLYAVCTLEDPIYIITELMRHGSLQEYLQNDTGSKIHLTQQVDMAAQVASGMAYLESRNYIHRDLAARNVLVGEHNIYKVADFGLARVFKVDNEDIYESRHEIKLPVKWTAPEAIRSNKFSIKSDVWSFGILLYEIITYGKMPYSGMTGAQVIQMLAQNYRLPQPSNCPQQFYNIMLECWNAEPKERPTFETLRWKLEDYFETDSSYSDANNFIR
Sequence of JAK3 JH1 catalytic (human) (P52333 whole entry, looked up): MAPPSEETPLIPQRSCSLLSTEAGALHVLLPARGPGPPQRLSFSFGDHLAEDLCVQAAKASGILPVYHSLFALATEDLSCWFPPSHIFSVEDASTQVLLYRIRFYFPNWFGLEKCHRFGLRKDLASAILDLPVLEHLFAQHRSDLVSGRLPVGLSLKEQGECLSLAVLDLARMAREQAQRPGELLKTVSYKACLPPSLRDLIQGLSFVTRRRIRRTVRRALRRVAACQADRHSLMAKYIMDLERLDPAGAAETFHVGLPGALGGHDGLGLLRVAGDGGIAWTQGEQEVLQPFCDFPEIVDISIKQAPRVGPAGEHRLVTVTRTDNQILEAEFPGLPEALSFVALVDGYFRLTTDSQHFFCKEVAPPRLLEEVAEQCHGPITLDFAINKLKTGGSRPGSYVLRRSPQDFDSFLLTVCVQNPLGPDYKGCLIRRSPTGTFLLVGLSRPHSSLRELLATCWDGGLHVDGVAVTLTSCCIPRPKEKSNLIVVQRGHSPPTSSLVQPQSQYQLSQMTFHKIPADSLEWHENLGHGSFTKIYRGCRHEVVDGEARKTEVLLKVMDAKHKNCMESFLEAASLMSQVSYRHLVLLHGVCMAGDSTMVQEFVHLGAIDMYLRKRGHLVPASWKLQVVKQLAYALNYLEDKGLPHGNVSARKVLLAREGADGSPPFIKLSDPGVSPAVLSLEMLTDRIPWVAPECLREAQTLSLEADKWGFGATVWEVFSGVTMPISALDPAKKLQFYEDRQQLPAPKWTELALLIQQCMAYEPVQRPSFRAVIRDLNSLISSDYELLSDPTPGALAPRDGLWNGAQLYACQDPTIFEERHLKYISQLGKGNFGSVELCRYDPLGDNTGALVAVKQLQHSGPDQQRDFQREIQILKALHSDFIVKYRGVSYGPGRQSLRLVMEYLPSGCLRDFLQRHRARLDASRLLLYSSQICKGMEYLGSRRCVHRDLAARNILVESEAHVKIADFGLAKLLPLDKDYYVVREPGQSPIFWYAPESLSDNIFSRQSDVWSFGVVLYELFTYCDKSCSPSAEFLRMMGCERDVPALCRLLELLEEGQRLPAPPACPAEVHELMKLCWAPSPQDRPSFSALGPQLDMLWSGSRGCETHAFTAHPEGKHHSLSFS
Sequence of EPHA8 (human) (P29322 whole entry, looked up): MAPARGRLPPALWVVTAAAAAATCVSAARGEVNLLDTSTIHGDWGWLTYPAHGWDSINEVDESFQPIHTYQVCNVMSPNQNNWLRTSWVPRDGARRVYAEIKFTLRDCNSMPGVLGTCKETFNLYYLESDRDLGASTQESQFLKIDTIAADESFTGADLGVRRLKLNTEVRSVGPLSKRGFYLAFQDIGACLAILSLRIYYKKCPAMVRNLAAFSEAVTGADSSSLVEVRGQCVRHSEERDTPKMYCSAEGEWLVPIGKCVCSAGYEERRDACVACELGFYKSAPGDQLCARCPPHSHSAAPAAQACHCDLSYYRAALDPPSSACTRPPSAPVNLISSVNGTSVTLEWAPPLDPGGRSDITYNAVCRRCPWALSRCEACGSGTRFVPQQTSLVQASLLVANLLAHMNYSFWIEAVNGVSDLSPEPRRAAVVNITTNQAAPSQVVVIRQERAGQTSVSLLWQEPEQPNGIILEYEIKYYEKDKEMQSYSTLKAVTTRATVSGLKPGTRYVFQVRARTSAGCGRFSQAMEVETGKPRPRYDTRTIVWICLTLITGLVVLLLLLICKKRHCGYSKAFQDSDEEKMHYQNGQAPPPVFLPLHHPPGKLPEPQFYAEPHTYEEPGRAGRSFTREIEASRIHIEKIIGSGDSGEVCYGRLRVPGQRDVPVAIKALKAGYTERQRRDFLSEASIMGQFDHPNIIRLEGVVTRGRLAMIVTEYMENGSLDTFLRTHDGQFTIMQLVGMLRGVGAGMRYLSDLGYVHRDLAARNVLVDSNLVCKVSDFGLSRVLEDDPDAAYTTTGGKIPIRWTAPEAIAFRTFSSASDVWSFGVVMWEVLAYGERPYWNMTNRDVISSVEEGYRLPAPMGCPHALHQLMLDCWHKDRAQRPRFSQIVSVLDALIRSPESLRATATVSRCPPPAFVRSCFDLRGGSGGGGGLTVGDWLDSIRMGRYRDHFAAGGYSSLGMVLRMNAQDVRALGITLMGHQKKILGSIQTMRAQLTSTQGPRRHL
Sequence of PIM2 (human) (Q9P1W9 whole entry, looked up): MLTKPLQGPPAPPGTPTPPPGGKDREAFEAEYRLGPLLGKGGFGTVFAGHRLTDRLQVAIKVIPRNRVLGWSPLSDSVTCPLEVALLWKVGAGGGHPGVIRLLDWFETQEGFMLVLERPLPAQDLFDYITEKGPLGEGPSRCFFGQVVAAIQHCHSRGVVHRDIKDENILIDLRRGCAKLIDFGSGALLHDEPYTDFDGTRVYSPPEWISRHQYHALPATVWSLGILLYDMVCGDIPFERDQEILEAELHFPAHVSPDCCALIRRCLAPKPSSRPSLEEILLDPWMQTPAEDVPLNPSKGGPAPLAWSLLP

Structure (SMILES): O=C1Nc2cc(Br)ccc2/C1=C1/Nc2ccccc2/C1=N\O
- kinase still bound, per cent of control [1]: 11%
- kinase still bound, per cent of control (BMPR1A (human)): 66%
- kinase still bound, per cent of control (BMPR2 (human)): 46%
- kinase still bound, per cent of control (CAMKK1 (human)): 4.8%
- kinase still bound, per cent of control (CDK18 (human)): 12%
- kinase still bound, per cent of control (DYRK1A (human)): 59%
- kinase still bound, per cent of control [2]: 14%
- kinase still bound, per cent of control (EPHA8 (human)): 40%
- kinase still bound, per cent of control (EPHB1 (human)): 43%
- kinase still bound, per cent of control (EPHB3 (human)): 100%
- kinase still bound, per cent of control (FRK (human)): 2.6%
- kinase still bound, per cent of control (GRK1 (human)): 60%
- kinase still bound, per cent of control (INSR (human)): 72%
- kinase still bound, per cent of control [3]: 6.3%
- kinase still bound, per cent of control (LATS1 (human)): 70%
- kinase still bound, per cent of control (MAP2K2 (human)): 26%
- kinase still bound, per cent of control (MAP3K13 (human)): 54%
- kinase still bound, per cent of control (MAP3K7 (human)): 20%
- kinase still bound, per cent of control (MAP4K3 (human)): 24%
- kinase still bound, per cent of control (MAPK3 (human)): 100%
- kinase still bound, per cent of control (MAPK8 (human)): 23%
- kinase still bound, per cent of control (MAPK9 (human)): 63%
- kinase still bound, per cent of control (MET (human)): 86%
- kinase still bound, per cent of control (MYLK3 (human)): 0.4%
- kinase still bound, per cent of control (NEK1 (human)): 70%
- kinase still bound, per cent of control (PAK7 (human)): 17%
- kinase still bound, per cent of control (PIK3CA (human)): 93%
- kinase still bound, per cent of control (PIM2 (human)): 52%
- kinase still bound, per cent of control (PIP5K1A (human)): 0%
- kinase still bound, per cent of control (PRKCD (human)): 100%
- kinase still bound, per cent of control (PRKCH (human)): 100%
- kinase still bound, per cent of control [4]: 0%
- kinase still bound, per cent of control (RIPK2 (human)): 69%
- kinase still bound, per cent of control (RPS6KA1 KD1 (human)): 3.1%
- kinase still bound, per cent of control (RPS6KA1 KD2 (human)): 47%
- kinase still bound, per cent of control (RPS6KA6 KD1 (human)): 51%
- kinase still bound, per cent of control (SRMS (human)): 13%
- kinase still bound, per cent of control (STK3 (human)): 0%
- kinase still bound, per cent of control (TLK1 (human)): 47%
- kinase still bound, per cent of control (TNK2 (human)): 28%
- kinase still bound, per cent of control [5]: 28%
